Test results published in publication PMC11355573, “A New Renieramycin T Right-Half Analog as a Small Molecule Degrader of STAT3” (Marine Drugs, 2024).
Read-outs that look alike come from different tables or passages of the source.

Assays:
H292 cells = assay type: cell-based; details: for apoptosis: 24 h
Description: (§1) Apoptosis is a crucial mechanism of cell death induced by anticancer drugs. We further analyzed the apoptosis induction effect of the potent small molecules, namely DH_28, DH_30, and DH_31. Nuclear morphology detected by the staining with nucleus-specific fluorescence dye Hoechst 33342 and cell-impermeable PI for necrotic detection was performed. Morphologic changes by means of condensed and/or fragmented nuclei were observed after 24 h of treatment (Figure 2D). […] Therefore, DH_31 was selected for further experiments.
(§2) Figure 2 The effect of RT right-half analogs on cytotoxicity in NSCLC and human normal lung epithelial (BEAS-2B) cell lines and apoptotic cell death in NSCLC cells. (A) NSCLC H292 and H460 cells were treated with derivatives of RT right-half analogs for 24 h and analyzed using MTT assay to assess cytotoxicity. (B) IC50 values for H292 and H460 cell lines were calculated. (C) BEAS-2B cells were treated with DH_28, DH_30, DH_31, and TM-(−)-18 for 24 h. The cytotoxic effects were evaluated using an MTT assay, and the IC50 values for BEAS-2B cells were determined. (D) H292 and H460 cells were seeded and treated with 0–10 μM of DH_28, DH_30, and DH_31 for 24 h. Hoechst 33342 and PI were used to stain the cell nuclei. Images were obtained under a fluorescence microscope. (E) The percentages of cell death were calculated based on the stained images in H292 and H460 cells. Data represent the mean ± SD (n = 3). *, **, and *** indicate a statistically significant difference between the treated and the untreated cells at p < 0.05, p < 0.01, and p < 0.001, respectively. TEXT PRINTED IN THE PICTURE: (B) DH_17: IC50 ± SD (μM) H292: 20.50 ± 3.69; IC50 ± SD (μM) H460: > 100 | (B) DH_20: IC50 ± SD (μM) H292: 21.46 ± 3.77; IC50 ± SD (μM) H460: > 100 | (B) DH_23: IC50 ± SD (μM) H292: 17.50 ± 3.08; IC50 ± SD (μM) H460: > 100 | (B) DH_26: IC50 ± SD (μM) H292: 7.18 ± 2.39; IC50 ± SD (μM) H460: > 100 | (B) DH_28: IC50 ± SD (μM) H292: 9.56 ± 1.87; IC50 ± SD (μM) H460: 11.48 ± 1.87 | (B) DH_30: IC50 ± SD (μM) H292: 7.80 ± 2.30; IC50 ± SD (μM) H460: 4.51 ± 0.78 | (B) DH_31: IC50 ± SD (μM) H292: 5.54 ± 1.04; IC50 ± SD (μM) H460: 2.90 ± 0.58 | (B) TM-(–)-18: IC50 ± SD (μM) H292: > 100; IC50 ± SD (μM) H460: 7.89 ± 1.27 | (C) DH_28: BEAS-2B IC50 ± SD (μM): 16.46 ± 2.11 | (C) DH_30: BEAS-2B IC50 ± SD (μM): 5.50 ± 1.70 | (C) DH_31: BEAS-2B IC50 ± SD (μM): 6.51 ± 1.40 | (C) TM-(–)-18: BEAS-2B IC50 ± SD (μM): 7.25 ± 1.25 DOUBTS OF THE COPYIST ABOUT THIS PICTURE: Panel C, DH_28, IC50: small print, 16.46 ± 2.11 is the best reading; 6 could be 8 / Panel C, DH_30, IC50: small print, 5.50 ± 1.70 is the best reading; 5 could be 6 / Panel C, DH_31, IC50: small print, 6.51 ± 1.40 is the best reading; 6 could be 8 or 5 / Panel C, TM-(–)-18, IC50: small print, 7.25 ± 1.25 is the best reading

H460 cells = assay type: cell-based; details: 24 h
Description: as §1, §2

BEAS-2B cells = assay: MTT assay in non-tumorigenic bronchial epithelial cells (selectivity); assay type: cell-based; details: Homo sapiens, 24 h, read-out: BEAS-2B IC50 ± SD
Description: NSCLCs H292 and H460 were treated with various concentrations of derivatives of the RT right-half analog for 24 h. […] However, the IC50 values for DH_17, DH_20, DH_23, and DH_26 in H460 cells were greater than 100 μM. TM-(−)-18 was identified as a potent compound in a previous study. The structure of TM-(−)-18 was present in Figure 1A. […] To assess the selectivity of DH_28, DH_30, DH_31, and TM-(−)-18 in lung cancer cells, non-tumorigenic epithelial cell lines derived from human bronchial epithelial cells (BEAS-2B) were treated with DH_28, DH_30, DH_31, and TM-(−)-18 at various concentrations for 24 h.
as §2, with “Data represent the mean ± SD (n = 3). *, **, and *** indicate a statistically significant difference between the treated and the untreated cells at p < 0.05, p < 0.01, and p < 0.001, respectively.” left out

STAT3 = molecular target: T1, STAT3 (Homo sapiens, UniProt P40763); assay: STAT3 immunofluorescence and confocal microscopy; assay type: cell-based; details: H460, 2.5 µM, 24 h (p < 0.001)
T1 construct: endogenous in cells; host or cells: NCI-H460 (ATCC HTB-177)
T1 sequence (P40763 whole entry): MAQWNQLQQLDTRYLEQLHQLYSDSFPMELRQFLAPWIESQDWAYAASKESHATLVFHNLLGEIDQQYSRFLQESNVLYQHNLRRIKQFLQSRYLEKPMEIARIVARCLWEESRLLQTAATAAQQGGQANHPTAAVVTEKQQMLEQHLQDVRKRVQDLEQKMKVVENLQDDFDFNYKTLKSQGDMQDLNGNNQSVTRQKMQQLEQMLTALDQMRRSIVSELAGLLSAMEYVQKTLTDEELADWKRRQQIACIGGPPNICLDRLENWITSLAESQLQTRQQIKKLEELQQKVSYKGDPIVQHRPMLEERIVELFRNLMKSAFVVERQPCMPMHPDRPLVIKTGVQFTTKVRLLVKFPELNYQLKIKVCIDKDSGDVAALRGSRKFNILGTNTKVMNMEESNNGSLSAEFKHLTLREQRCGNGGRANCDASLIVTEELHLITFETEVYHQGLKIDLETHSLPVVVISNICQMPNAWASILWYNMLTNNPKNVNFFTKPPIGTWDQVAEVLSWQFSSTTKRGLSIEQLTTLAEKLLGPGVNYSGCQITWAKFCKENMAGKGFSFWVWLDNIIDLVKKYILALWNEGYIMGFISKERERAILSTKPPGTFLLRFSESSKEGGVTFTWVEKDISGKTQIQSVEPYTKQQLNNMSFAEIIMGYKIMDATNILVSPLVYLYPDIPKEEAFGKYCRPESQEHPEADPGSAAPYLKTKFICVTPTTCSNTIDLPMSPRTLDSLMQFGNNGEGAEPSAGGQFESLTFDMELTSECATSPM
Description: To explore whether DH_31 could suppress STAT3, H460 cells were treated with 1 and 2.5 μM of DH_31 for 24 h. Immunofluorescence and confocal microscopy were performed to visualize STAT3 expression.
Immunofluorescence staining and confocal microscopy were conducted to visualize the subcellular localization and spatial distribution of specific proteins. H460 cells (1.0 × 10^4 cells per well) were seeded in 96-well plates. Following overnight incubation, the cells were treated with different concentrations of DH_31 (0–2.5 μM) for 24 h at 37 °C. After treatment, the cells were permeabilized with 0.5% Triton-X in PBS for 5 min, followed by the blocking of non-specific proteins with 10% FBS in 0.1% Triton-X PBS for 1 h at room temperature. Subsequently, the cells were exposed to primary antibodies (STAT3, Slug, Snail, Vimentin, N-cadherin, ZO1, and ZEB1) and incubated at 4 °C overnight. The cells were then incubated with Alexa Fluor 488- or 594-conjugated secondary antibodies and Hoechst 33342 for 1 h at room temperature. After washing with PBS, the cells were covered with 50% glycerol. The images were captured by confocal microscopy (Zeiss, Jena, Germany). The fluorescence intensity was measured using ImageJ™ software (Image J 1.52a, Rasband, W., National Institutes of Health, Bethesda, MD, USA).

[1] = test system: NSCLC cells (H292 and H460); assay: Hoechst 33342/PI staining, percentage of dead cells in NSCLC; assay type: cell-based, human; details: 10 μM, 24 h
Description: as §1
Figure 2 The effect of RT right-half analogs on cytotoxicity in NSCLC and human normal lung epithelial (BEAS-2B) cell lines and apoptotic cell death in NSCLC cells. (A) NSCLC H292 and H460 cells were treated with derivatives of RT right-half analogs for 24 h and analyzed using MTT assay to assess cytotoxicity. (B) IC50 values for H292 and H460 cell lines were calculated. (C) BEAS-2B cells were treated with DH_28, DH_30, DH_31, and TM-(−)-18 for 24 h. The cytotoxic effects were evaluated using an MTT assay, and the IC50 values for BEAS-2B cells were determined. (D) H292 and H460 cells were seeded and treated with 0–10 μM of DH_28, DH_30, and DH_31 for 24 h. Hoechst 33342 and PI were used to stain the cell nuclei. Images were obtained under a fluorescence microscope. (E) The percentages of cell death were calculated based on the stained images in H292 and H460 cells. […]

COc1c(C)cc2c(c1O)[C@@H]1CN(Cc3ccc4ccccc4c3)[C@@H](C#N)[C@H](C2)N1C [DH_31, (1R,4R,5S)-10-hydroxy-9-methoxy-8,11-dimethyl-3-(naphthalen-2-ylmethyl)-1,2,3,4,5,6-hexahydro-1,5-epiminobenzo[d]azocine-4-carbonitrile]
apoptosis (H292 cells; H292, 1 µM): significant apoptosis
apoptosis (H292 cells; H292, 10 µM): significant apoptosis
necrosis (H292 cells; H292, 10 µM, 24 h (p < 0.001)): Necrosis was detected
necrosis (H460 cells; H460, 1 µM): did not cause significant necrosis
apoptotic cell death (H460 cells; H460, 10 µM): significant apoptotic cell death
necrosis (H460 cells; H460, 10 µM): did not cause significant necrosis
IC50 (BEAS-2B cells): 6.51 ± 1.4 µM
STAT3 expression (immunofluorescence) (STAT3): significant reduction
dead cells in NSCLC [1]: 34–66%
